Reference: article PMC9673926, “Nucleotide binding as an allosteric regulatory mechanism for Akkermansia muciniphila β-N-acetylhexosaminidase Am2136” (Gut Microbes, 2022)
Numbering of substitutions follows the chain as printed.

Columns and labels:
[1] = target: T1, Am2136 R256A (Akkermansia muciniphila, UniProt B2UPR7, R256A); assay: Nucleotide binding affinity by intrinsic fluorescence, mutant; set-up: The coding region (residue Q20-L756) of Am2136 without signal peptide was based on UniProt; 6XHis (N); made in house; host or cells: E. coli BL21 (DE3)
T1 sequence (B2UPR7 20-756 R256A): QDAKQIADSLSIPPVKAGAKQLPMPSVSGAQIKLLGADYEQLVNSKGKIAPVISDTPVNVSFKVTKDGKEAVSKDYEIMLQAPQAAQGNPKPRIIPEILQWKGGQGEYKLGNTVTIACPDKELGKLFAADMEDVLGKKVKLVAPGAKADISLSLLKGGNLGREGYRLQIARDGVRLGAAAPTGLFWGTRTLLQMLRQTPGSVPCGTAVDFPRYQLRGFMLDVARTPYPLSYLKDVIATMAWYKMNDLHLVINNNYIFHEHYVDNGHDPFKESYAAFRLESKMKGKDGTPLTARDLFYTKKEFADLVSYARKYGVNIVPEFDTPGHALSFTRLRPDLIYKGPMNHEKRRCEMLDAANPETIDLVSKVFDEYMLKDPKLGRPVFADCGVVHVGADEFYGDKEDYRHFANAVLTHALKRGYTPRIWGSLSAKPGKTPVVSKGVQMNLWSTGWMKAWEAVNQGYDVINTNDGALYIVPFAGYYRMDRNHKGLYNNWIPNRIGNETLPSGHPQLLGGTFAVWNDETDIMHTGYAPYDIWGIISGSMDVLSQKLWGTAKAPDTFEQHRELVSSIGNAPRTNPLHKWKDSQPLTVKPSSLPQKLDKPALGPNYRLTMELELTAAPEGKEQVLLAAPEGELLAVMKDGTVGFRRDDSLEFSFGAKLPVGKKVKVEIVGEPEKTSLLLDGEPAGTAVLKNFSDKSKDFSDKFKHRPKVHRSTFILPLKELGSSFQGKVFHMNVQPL
Procedure: (§1) The nucleotide binding ability was determined on Fluorescence Spectrometer Duetta (HORIBA) by measuring the change of peak intensity. The fluorescence was excited at 286 nm and emitted at 336 nm. And the measurement was processed under 400 V voltage with 2.5 nm excitation slit and 5 nm emission slit. The 120 μL reaction mixture contains 0–550 μM nucleotide, 5 μM proteins, 25 mM Tris pH 8.0 and 150 mM NaCl. The sample was incubated at 4°C for 5 min before testing.

[2] = target: T2, Am2136 R592A (Akkermansia muciniphila, UniProt B2UPR7, R592A); assay: as above; set-up: The coding region (residue Q20-L756) of Am2136 without signal peptide was based on UniProt; 6XHis (N); made in house; host or cells: E. coli BL21 (DE3)
T2 sequence (B2UPR7 20-756 R592A): T1 sequence (B2UPR7 20-756 R256A) with A237R, R573A
Procedure: as §1

[3] = target: T3, Am2136 Y550A (Akkermansia muciniphila, UniProt B2UPR7, Y550A); assay: GDP regulated enzyme activity assay, mutant; conditions: 1 mM GDP, substrate pNP-β-GlcNAc
T3 sequence (B2UPR7 20-756 Y550A): T1 sequence (B2UPR7 20-756 R256A) with A237R, Y531A

[4] = target: T2, Am2136 R592A; assay: GDP regulated enzyme activity assay, mutant; conditions: 1 mM GDP, substrate pNP-β-GlcNAc

Compound: Nc1nc2c(ncn2[C@@H]2O[C@H](COP(=O)(O)OP(=O)(O)O)[C@@H](O)[C@H]2O)c(=O)[nH]1 [GDP]
- Kd [1]: 158 ± 10.9 µM
- Kd [2]: 120 ± 5.82 µM
- Vmax [3]: 463 ± 7 µmol/min
- Vmax [4]: 442 ± 5 µmol/min
